Assays:
Format in all cases: in vivo
[1] = test system: Italian ryegrass (Lolium multiflorum); experiment: (1) Herbicidal effect test, pot, spray at 2.3 to 3.0 leaf stage; settings: 6th day after spraying
Procedure: (§1) Upland soil was put in a 1/1,000,000 hectare pot, and seeds of Italian ryegrass (Lolium multiflorum) were sown. When the Italian ryegrass reached 2.3 to 3.0 leaf stage, a water-based suspension containing tiafenacil as the active ingredient, prepared by a conventional method for preparing a water-based suspension, and an emulsifiable concentrate containing S-metolachlor as the active ingredient (tradename: Dual Gold, manufactured by Syngenta), were diluted with water (in an amount corresponding to 200 liter per hectare) containing 0.5 vol % of an agricultural spreader (tradename: Destiny HC, manufactured by Winfield Solutions, LLC.) and sprayed by a small spray gun (model: W-101-132G, manufactured by ANEST IWATA Corporation). On the 6th day after spraying, the state of growth of the Italian ryegrass was visually observed, and the growth inhibition rate (%) was obtained based on the following standards and the results are shown in Table 1.
Further, the expected value of the growth inhibition rate (%) was calculated in accordance with the following Colby's formula (S. R. Colby, “Weeds”, vol. 15 ([…]), p. 20-22) and the results are also shown in Table 1.
(§2) [formula] • X: growth inhibition rate when treated with α (g/ha) of compound A, • Y: growth inhibition rate when treated with β (g/ha) of compound B, • E: growth inhibition rate expected when treated with α (g/ha) of compound A and β (g/ha) of compound B (expected value).
That is, when the growth inhibition rate of the composition of the present invention is higher than E (expected value of growth inhibition rate) calculated by the above formula, the combination can be regarded as having a synergistic effect.

[2] = test system: Italian ryegrass (Lolium multiflorum); experiment: (2) Herbicidal effect test, pot, spray at 2.5 to 3.0 leaf stage; settings: 16th day after spraying
Description: as §2
as §1, with “2.5” for “2.3”, “16th” for “6th”, “in accordance with” for “based on”, “evaluation” for “following”, “standards described in the above (1) herbicidal effect test,” for “standards”, “2. Further, the expected value of the growth inhibition rate (%) was calculated in accordance with the Colby's formula described in the above (1) herbicidal effect test, and the results are also shown in Table 2.” for “1.”

[3] = test system: Italian ryegrass (Lolium multiflorum); experiment: (6) Herbicidal effect test, pot, spray at 2.5 to 3.0 leaf stage; settings: 14th day after spraying
Description: as §2
Upland soil was put in a 1/1,000,000 hectare pot, and seeds of Italian ryegrass (Lolium multiflorum) were sown. When the Italian ryegrass reached 2.5 to 3.0 leaf stage, a water-based suspension containing tiafenacil as the active ingredient, prepared by a conventional method for preparing a water-based suspension, and water dispersible granules containing pyroxasulfone as the active ingredient (tradename: Sakura, manufactured by Bayer Crop Science) were diluted with water (in an amount corresponding to 200 liter per hectare) containing 0.5 vol % of an agricultural spreader (tradename: Destiny HC, manufactured by Winfield Solutions, LLC.) and sprayed by a small spray gun (model: W-101-132G, manufactured by ANEST IWATA Corporation). On the 14th day after spraying, the state of growth of the Italian ryegrass was visually observed, and the growth inhibition rate (%) was obtained in accordance with the evaluation standards described in the above (1) herbicidal effect test, and the results are shown in Table 6. Further, the expected value of the growth inhibition rate (%) was calculated in accordance with the Colby's formula described in the above (1) herbicidal effect test, and the results are also shown in Table 6.

COC(=O)CCNC(=O)C(C)Sc1cc(-n2c(=O)cc(C(F)(F)F)n(C)c2=O)c(F)cc1Cl (stereo not drawn) [tiafenacil]
Growth inhibition rate (%) Measured value ([1]; Dose 12.5 g/ha): 75%
Growth inhibition rate (%) Measured value ([1]; Dose 25 g/ha): 83%
Growth inhibition rate (%) Measured value ([2]; Dose 12.5 g/ha): 30%
Growth inhibition rate (%) Measured value ([3]; Dose 12.5 g/ha): 63%

Cn1nc(C(F)(F)F)c(CS(=O)(=O)C2=NOC(C)(C)C2)c1OC(F)F [pyroxasulfone]
inhibition at 15 g/ha ([3]; Lolium multiflorum, Dose 15 g/ha, read-out: Growth inhibition rate (%) Measured value): 0%
inhibition at 30 g/ha ([3]; Lolium multiflorum, Dose 30 g/ha, read-out: Growth inhibition rate (%) Measured value): 5%
inhibition at 125 g/ha ([3]; Lolium multiflorum, Dose 125 g/ha, read-out: Growth inhibition rate (%) Measured value): 35%
inhibition at 250 g/ha ([3]; Lolium multiflorum, Dose 250 g/ha, read-out: Growth inhibition rate (%) Measured value): 42%
inhibition at 500 g/ha ([3]; Lolium multiflorum, Dose 500 g/ha, read-out: Growth inhibition rate (%) Measured value): 67%
inhibition at 1000 g/ha ([3]; Lolium multiflorum, Dose 1000 g/ha, read-out: Growth inhibition rate (%) Measured value): 72%

CCc1cccc(C)c1N(C(=O)CCl)[C@@H](C)COC [S-metolachlor]
Growth inhibition rate (%) Measured value ([1]; Dose 125 g/ha): 0%
Growth inhibition rate (%) Measured value ([1]; Dose 250 g/ha): 1%
Growth inhibition rate (%) Measured value ([1]; Dose 375 g/ha): 3%
Growth inhibition rate (%) Measured value ([1]; Dose 750 g/ha): 4%
Growth inhibition rate (%) Measured value ([1]; Dose 1500 g/ha): 5%
Growth inhibition rate (%) Measured value ([1]; Dose 3000 g/ha): 5%
Growth inhibition rate (%) Measured value ([2]; Dose 62.5 g/ha): 0%
Growth inhibition rate (%) Measured value ([2]; Dose 125 g/ha): 0%
Growth inhibition rate (%) Measured value ([2]; Dose 750 g/ha): 7%
Growth inhibition rate (%) Measured value ([2]; Dose 1500 g/ha): 55%
Growth inhibition rate (%) Measured value ([2]; Dose 3000 g/ha): 73%

Reference: patent US20250380696A1, “METHOD FOR CONTROLLING UNDESIRED PLANTS AND PROMOTING GROWTH OF USEFUL PLANTS” (ISHIHARA SANGYO KAISHA, LTD., priority 2022, published 2025)
